Results as given in PMC6792352, “Limited Chemical Structural Diversity Found to Modulate Thyroid Hormone Receptor in the Tox21 Chemical Library” (Environmental Health Perspectives, 2019).
Where a name gives a salt, the structure may show the parent alone.

Assay: in vitro
Conditions: rat, gh3-tre-luc cells, AC50 (uM) modified / 1000

Point of comparison: `O=C=Nc1cccc(C(F)(F)F)c1` [3-(Trifluoromethyl)phenyl isocyanate], CC50 at 24 h 49 µM. Against it:
- CCOc1ccc2nc(S(N)(=O)=O)sc2c1 [Ethoxzolamide] — higher, > 50 µM
- CC(C(=O)O)c1ccc(/C=C2\CCCCC2=O)cc1 (stereo not drawn) [Pelubiprofen] — higher, > 50 µM
- Cc1ccccc1 [Toluene] — higher, > 90 µM
- CC(O)CN(CCCN(C)C)CCCN(C)C (stereo not drawn) [1-{Bis[3-(dimethylamino)propyl]amino}propan-2-ol] — higher, > 90 µM
- COc1cc(C(C)C)c2c(c1)S(=O)(=O)N(COc1cc(=O)n3cccc(OCCN4CCCCC4)c3n1)C2=O [SSR69071] — 4.1-fold lower, 11.9 µM
- CCNC(=O)[C@@H]1CCCN1C(=O)[C@H](CCCNC(=N)N)NC(=O)[C@H](CC(C)C)NC(=O)[C@@H](CC(C)C)NC(=O)[C@H](Cc1ccc(O)cc1)NC(=O)[C@H](CO)NC(=O)[C@H](Cc1c[nH]c2ccccc12)NC(=O)[C@H](Cc1c[nH]cn1)NC(=O)[C@@H]1CCC(=O)N1 [Leuprolide acetate salt] — higher, > 50 µM
- O=Cc1ccccc1Cl [2-Chlorobenzaldehyde] — higher, > 90 µM
- C[C@H]1C(=O)O[C@@H]2CCN3CC=C(COC(=O)[C@](C)(O)[C@]1(C)O)[C@H]23 [Monocrotaline] — higher, > 90 µM
- CCCCCCCCCCCCCCCCSCC(COC)COP(=O)([O-])OCC[N+](C)(C)C (stereo not drawn) [Ilmofosine] — 2.5-fold lower, 19.3 µM
- CN1CCC(Nc2ncc3ncnc(Nc4ccc(F)c(Cl)c4)c3n2)CC1 [Falnidamol dihydrochloride] — 4.2-fold lower, 11.7 µM
- CSC(C)(C)/C=N/O [Aldicarb oxime] — higher, > 90 µM
- CCc1cc(Cc2cc(CC)cc(C(C)(C)C)c2O)c(O)c(C(C)(C)C)c1 [2,2'-Methylenebis(ethyl-6-tert-butylphenol)] — 6.7-fold lower, 7.35 µM
- CC(C)N(Cc1ccccc1)C(=O)C(C)(C)C [Butam] — higher, > 90 µM
- CC/C=C/CCCCCCCCCCOC(C)=O [(E)-11-Tetradecen-1-ol acetate] — higher, > 90 µM
- CCCSSCCC [Dipropyl disulfide] — higher, > 90 µM
- ON=C1CCCC1 [Cyclopentanone oxime] — higher, > 90 µM
- N[C@@H](CCC(=O)N[C@@H](CS)C(=O)NCC(=O)O)C(=O)O [Glutathione] — higher, > 50 µM
- C=CCOCC(CO)(CO)CO [Pentaerythritol allyl ether] — higher, > 60 µM
- CO[C@H]1/C=C/O[C@@]2(C)Oc3c(C)c(O)c4c(O)c(cc(O)c4c3C2=O)NC(=O)/C(C)=C\C=C\[C@H](C)[C@H](O)[C@@H](C)[C@@H](O)[C@@H](C)[C@H](OC(C)=O)[C@@H]1C [Rifamycin SV sodium salt] — within 1.5-fold, 50.2 µM
- CC1=CC(=O)NS(=O)(=O)O1 [Acesulfame potassium] — higher, > 90 µM
- CN(C)C(=O)NC1(c2ccccc2)CCN(CCC[C@]2(c3ccc(Cl)c(Cl)c3)CCCN(C(=O)c3ccccc3)C2)CC1 [SSR146977] — 6.1-fold lower, 8.07 µM
- Cc1oc(-c2ccccc2)nc1CCOc1ccc(C[C@H](Nc2ccccc2C(=O)c2ccccc2)C(=O)O)cc1 [Farglitazar] — 2-fold lower, 25 µM
- COCCCOc1cc(C[C@@H](C[C@H](N)[C@@H](O)C[C@H](C(=O)NCC(C)(C)C(N)=O)C(C)C)C(C)C)ccc1OC [Aliskiren hydrochloride] — higher, > 50 µM
- CC(C)(O)c1ccc(CNC(=O)c2cccnc2Oc2ccc3nonc3c2)cc1 [CP-612372] — higher, > 90 µM
- CN(C)C(C)(C)CO [2-(Dimethylamino)-2-methylpropan-1-ol] — higher, > 90 µM
- Oc1ccc(Cl)cc1C1CCCC1 [4-Chloro-2-cyclopentylphenol] — within 1.5-fold, 55.3 µM
- COc1ccc(NS(=O)(=O)c2ccc(N)cc2)nn1 [Sulfamethoxypyridazine] — not separable, > 20 µM
- CC(C)CCOCc1ccccc1 [Benzyl 3-methylbutyl ether] — higher, > 90 µM
- O=C(CC(=O)C(F)(F)F)c1ccccc1 [4,4,4-Trifluoro-1-phenyl-1,3-butanedione] — higher, > 90 µM
- N=C(N)c1ccc(OCCCOc2ccc(C(=N)N)cc2)cc1 [Propamidine] — higher, > 50 µM
- CN(C)C(=O)Oc1ccc[n+](C)c1 [Pyridostigmine bromide] — higher, > 50 µM
- CC(C)(C)N [tert-Butylamine] — higher, > 90 µM
- C#C[C@]1(O)CC[C@H]2[C@@H]3CCC4=Cc5oncc5C[C@]4(C)[C@H]3CC[C@@]21C [Danazol] — within 1.5-fold, 57.4 µM
- CCCCCCCCCCCC[N+](C)(C)CC(=O)O [N-(Alkyl C10-C16)-N,N-dimethylglycine betaine] — 1.6-fold higher, 79.2 µM
- C[C@@H]1C/C=C/C=C/C=C/C=C/[C@H](O[C@@H]2O[C@H](C)[C@@H](O)[C@H](N)[C@@H]2O)C[C@@H]2O[C@](O)(C[C@@H](O)C[C@H]3O[C@@H]3/C=C/C(=O)O1)C[C@H](O)[C@H]2C(=O)O [Natamycin] — higher, > 50 µM
- c1cnccn1 [Pyrazine] — higher, > 90 µM
- Oc1ccc(C2(c3ccc(O)cc3)c3ccccc3-c3ccccc32)cc1 [4,4'-(9H-Fluorene-9,9-diyl)diphenol] — 1.7-fold lower, 28.7 µM
- O=C(O)CO [Glycolic acid] — higher, > 90 µM
- CCC(C)c1ccc(O)cc1 (stereo not drawn) [4-(Butan-2-yl)phenol] — within 1.5-fold, 61.9 µM
- O=C1c2cccc(O)c2C(=O)c2c(O)cc(CO)cc21 [Aloe-emodin] — higher, > 90 µM
- CC1CCCC1 [Methylcyclopentane] — higher, > 90 µM
- CCCOc1ccc2nc(NC(=O)OC)[nH]c2c1 [Oxibendazole] — 93-fold lower, 0.527 µM
- O=c1c2ccccc2[se]n1-c1ccccc1 [Ebselen] — 2.5-fold lower, 19.6 µM
- CC[N+](CC)(CC(=O)Nc1c(C)cccc1C)Cc1ccccc1 [Denatonium benzoate] — higher, > 50 µM
- c1ccc2c(c1)Cc1ccccc1-2 [Fluorene] — higher, > 90 µM
- CC(C)(C)c1cccc(C(C)(C)C)c1O [2,6-Di-tert-butylphenol] — higher, > 90 µM
- NC(=O)c1c(Cl)cccc1Cl [2,6-Dichlorobenzamide] — higher, > 90 µM
- O=C1[C@H]2CCCC[C@H]2C(=O)N1CCCCN1CCN(c2nsc3ccccc23)CC1 [Perospirone hydrochloride] — 2.3-fold lower, 21 µM
- O=C(NC(=O)c1c(F)cccc1F)Nc1cc(Cl)c(OC(F)(F)C(F)F)c(Cl)c1 [Hexaflumuron] — higher, > 90 µM
- CN(C)C(=O)Nc1cccc(C(F)(F)F)c1 [Fluometuron] — higher, > 90 µM
- COc1ccc(C(=O)c2ccc(C)cc2)c(O)c1 [Mexenone] — higher, > 90 µM

Same assay, conditions: rat, gh3-tre-luc cells, AC50 (uM) modified / 1000, Tox21_110001=Tox21_111700; viability, 1 nM T3 present, 24 h

For `O=C(Nc1ccc(Br)cc1)c1cc(Br)cc(Br)c1O` [Tribromsalan], the CC50 at 24 h was 14.2 µM.

Same assay, conditions: rat, gh3-tre-luc cells, AC50 (uM) modified / 1000, Tox21_110001=Tox21_112065; viability, 1 nM T3 present, 24 h

In the case of `CO[C@@H]1[C@H](O)C[C@@H](O[C@@H]2C[C@H](Oc3cc4cc5c(c(O)c4c(O)c3C)C(=O)[C@@H](O[C@H]3C[C@@H](O[C@H]4C[C@@H](O[C@H]6C[C@](C)(O)[C@@H](OC(C)=O)[C@H](C)O6)[C@H](O)[C@@H](C)O4)[C@H](O)[C@@H](C)O3)[C@H]([C@H](OC)C(=O)[C@@H](O)[C@@H](C)O)C5)O[C@H](C)[C@@H]2OC(C)=O)O[C@@H]1C` [Chromomycin A3], the CC50 at 24 h is reported as 0.366 µM.

Same assay, conditions: rat, gh3-tre-luc cells, AC50 (uM) modified / 1000, Tox21_110001=Tox21_112368; viability, 1 nM T3 present, 24 h

With `CCON=O` [Ethyl nitrite] the CC50 at 24 h was over 50 µM.

Same assay, conditions: rat, gh3-tre-luc cells, AC50 (uM) modified / 1000, Tox21_110001=Tox21_112759; viability, 1 nM T3 present, 24 h

In the case of `S=C(S)N1CCNCC1` [1-Piperazinecarbodithioic acid], the CC50 at 24 h is reported as over 50 µM.

Same assay, conditions: rat, gh3-tre-luc cells, AC50 (uM) modified / 1000, Tox21_110001=Tox21_112851; viability, 1 nM T3 present, 24 h

For `COc1ccc(OC)c(C[C@H](C)N)c1` [(2S)-1-(2,5-Dimethoxyphenyl)propan-2-amine hydrogen chloride (1:1)], the CC50 at 24 h was over 100 µM.

Same assay, conditions: rat, gh3-tre-luc cells, AC50 (uM) modified / 1000, Tox21_110001=Tox21_113156; viability, 1 nM T3 present, 24 h

For `S=C(SSC(=S)N1CCCCC1)N1CCCCC1` [Dicyclopentamethylenethiuram disulfide], the CC50 at 24 h was 0.373 µM.

Same assay, conditions: rat, gh3-tre-luc cells, AC50 (uM) modified / 1000, Tox21_110001=Tox21_202442; viability, 1 nM T3 present, 24 h

With `O=C(Nc1ccc(Br)cc1)c1cc(Br)cc(Br)c1O` [Tribromsalan] the CC50 at 24 h was 5.41 µM.

Same assay, conditions: rat, gh3-tre-luc cells, AC50 (uM) modified / 1000, Tox21_110001=Tox21_303223; viability, 1 nM T3 present, 24 h

`O=C(Nc1ccc(Br)cc1)c1cc(Br)cc(Br)c1O` [Tribromsalan] gave a CC50 at 24 h of 6.43 µM.
